Data published in ChEMBL document CHEMBL4651402, “Screening of ~5500 FDA-approved drugs and clinical candidates for anti-SARS-CoV-2 activity” (2021).

System: SARS-CoV-2
Experiment: microbe, parasite or virus in culture
Conditions: Severe acute respiratory syndrome coronavirus 2, Vero C1008, 48 h

Question: What does the source list for `CC(=O)Oc1ccc(-c2ccc(F)cc2)cc1C(=O)O` [FLUFENISAL]?
Answer: IC50: > 20 µM; IC50 (read-out: pIC50 (converted)): > 20 µM

Question: With `CC(=O)Oc1ccccc1C(=O)O` [ASPIRIN] as the compound, how does the IC50 read?
Answer: > 20 µM

Question: What about the IC50 (read-out: pIC50 (converted)) of the same compound?
Answer: > 20 µM

Question: With `C#C[C@@]1(O)[C@@H](CO)O[C@@H](n2ccc(N)nc2=O)[C@@H]1O` [TAS-106] as the compound, how does the IC50 read?
Answer: > 20 µM

Question: What about the IC50 (read-out: pIC50 (converted)) of the same compound?
Answer: > 20 µM

Question: Which results are given for `COc1ccc(-n2nc3c4c([nH]cc-3c2=O)CCCCC4)cc1`?
Answer: IC50: > 20 µM; IC50 (read-out: pIC50 (converted)): > 20 µM

Question: `CCO[C@@H](Cc1ccc(OCCc2ccc(OS(C)(=O)=O)cc2)cc1)C(=O)O` [TESAGLITAZAR] was tested. Which IC50 did it give?
Answer: > 20 µM

Question: What about the IC50 (read-out: pIC50 (converted)) of the same compound?
Answer: > 20 µM

Question: For `COC(=O)Nc1c(N)nc(-c2nn(Cc3ccccc3F)c3ncccc23)nc1N`, which IC50 is on record?
Answer: > 20 µM

Question: What about the IC50 (read-out: pIC50 (converted)) of the same compound?
Answer: > 20 µM

Question: Which results are given for `CC(C)OC(=O)[C@H](C)N[P@@](=O)(OC[C@@]1(F)O[C@@H](n2ccc(=O)[nH]c2=O)[C@](C)(O)[C@@H]1O)Oc1ccccc1`?
Answer: IC50: > 20 µM; IC50 (read-out: pIC50 (converted)): > 20 µM

Question: Which results are given for `C=CCC1(CC(C)C)C(=O)NC(=O)NC1=O` [BUTALBITAL]?
Answer: IC50: > 20 µM; IC50 (read-out: pIC50 (converted)): > 20 µM

Question: Which IC50 does the source give for `N=C(N)NN=C1C=CC(=NNC(N)=S)C=C1` [AMBAZONE] here?
Answer: > 20 µM

Question: And the IC50 (read-out: pIC50 (converted))?
Answer: > 20 µM

Question: For `CC(C)[C@@]1(NC(=O)[C@@H]2C[C@@H]3c4cccc5[nH]cc(c45)C[C@H]3N(C)C2)O[C@@]2(O)[C@@H]3CCCN3C(=O)[C@H](C)N2C1=O`, which IC50 is on record?
Answer: > 20 µM

Question: And the IC50 (read-out: pIC50 (converted))?
Answer: > 20 µM

Question: What does the source list for `C[S+]([O-])c1ccc(-c2nc(-c3ccc(F)cc3)c(-c3ccncc3)[nH]2)cc1` (centres undefined) [SB-203580]?
Answer: IC50: > 20 µM; IC50 (read-out: pIC50 (converted)): > 20 µM

Question: Which results are given for `CC(Cc1ccccc1)NN` (centres undefined) [PHENIPRAZINE]?
Answer: IC50: > 20 µM; IC50 (read-out: pIC50 (converted)): > 20 µM

Question: `O=C(/C=C/c1ccc(O)c(O)c1)c1ccc(O)cc1O` [BUTEIN] was tested. Which IC50 did it give?
Answer: > 20 µM

Question: And the IC50 (read-out: pIC50 (converted))?
Answer: > 20 µM

Question: How did the IC50 turn out when `NCCS(=O)(=O)O` [TAURINE] was run?
Answer: > 20 µM

Question: And the IC50 (read-out: pIC50 (converted))?
Answer: > 20 µM

Question: `C[C@]12CC[C@H](O)CC1CC[C@@H]1[C@@H]2CC[C@]2(C)C(=O)CC[C@@H]12` (some centres undefined) was tested. Which IC50 did it give?
Answer: > 20 µM

Question: And the IC50 (read-out: pIC50 (converted))?
Answer: > 20 µM

Question: `CNC(C)CC1CCCC1` (centres undefined) [CYCLOPENTAMINE] was tested. Which IC50 did it give?
Answer: > 20 µM

Question: And the IC50 (read-out: pIC50 (converted))?
Answer: > 20 µM

Question: How did the IC50 turn out when `O=[N+]([O-])c1ccc(O)c([N+](=O)[O-])c1` [2,4-DINITROPHENOL] was run?
Answer: > 20 µM

Question: And the IC50 (read-out: pIC50 (converted))?
Answer: > 20 µM

Question: Which IC50 does the source give for `Cc1nc2ccccn2c(=O)c1CCN1CCC(C(=O)c2ccc(F)cc2)CC1` [PIRENPERONE] here?
Answer: > 20 µM

Question: And the IC50 (read-out: pIC50 (converted))?
Answer: > 20 µM

Question: With `CC(C(=O)O)c1ccc2c(c1)[nH]c1ccc(Cl)cc12` (centres undefined) [CARPROFEN] as the compound, how does the IC50 read?
Answer: > 20 µM

Question: And the IC50 (read-out: pIC50 (converted))?
Answer: > 20 µM

Question: What does the source list for `Nc1nc(F)nc2c1ncn2[C@@H]1O[C@H](CO)[C@@H](O)[C@H]1O`?
Answer: IC50: > 20 µM; IC50 (read-out: pIC50 (converted)): > 20 µM

Question: `COC(=O)C1=C(C)NC(C)=C(C(=O)OCCN(C)Cc2ccccc2)C1c1cccc([N+](=O)[O-])c1` (centres undefined) [NICARDIPINE] was tested. Which IC50 did it give?
Answer: > 20 µM

Question: And the IC50 (read-out: pIC50 (converted))?
Answer: > 20 µM

Question: For `CCCCOC(=O)c1ccc(O)cc1` [BUTYLPARABEN], which IC50 is on record?
Answer: > 20 µM

Question: And the IC50 (read-out: pIC50 (converted))?
Answer: > 20 µM

Question: For `Fc1ccc(C(OCCN2CCN(CCCc3ccccc3)CC2)c2ccc(F)cc2)cc1` [VANOXERINE], which IC50 is on record?
Answer: > 20 µM

Question: What about the IC50 (read-out: pIC50 (converted)) of the same compound?
Answer: > 20 µM

Question: `CNC(=O)c1c(-c2ccc(F)cc2)oc2cc(N(CCO)S(C)(=O)=O)c(C3CC3)cc12` [NESBUVIR] was tested. Which IC50 did it give?
Answer: > 20 µM

Question: And the IC50 (read-out: pIC50 (converted))?
Answer: > 20 µM

Question: What does the source list for `Cc1ccc([C@@]23Cn4cccc4C(=O)N2CCN3C(=O)c2conc2C)cn1`?
Answer: IC50: > 20 µM; IC50 (read-out: pIC50 (converted)): > 20 µM

Question: How did the IC50 turn out when `COC(=O)[C@@H](N)CCCNC(=N)N[N+](=O)[O-]` was run?
Answer: > 20 µM

Question: What about the IC50 (read-out: pIC50 (converted)) of the same compound?
Answer: > 20 µM

Question: With `Nc1cc(N2CCCCC2)nc(N)[n+]1[O-]` [MINOXIDIL] as the compound, how does the IC50 read?
Answer: > 20 µM

Question: What about the IC50 (read-out: pIC50 (converted)) of the same compound?
Answer: > 20 µM

Question: Which IC50 does the source give for `N[C@@H](CS)C(=O)O` [CYSTEINE] here?
Answer: > 20 µM

Question: What about the IC50 (read-out: pIC50 (converted)) of the same compound?
Answer: > 20 µM

Question: Which IC50 does the source give for `Oc1ccc(C(O)CNCCCCCCNCC(O)c2ccc(O)c(O)c2)cc1O` (centres undefined) [HEXOPRENALINE] here?
Answer: > 20 µM

Question: What about the IC50 (read-out: pIC50 (converted)) of the same compound?
Answer: > 20 µM

Question: With `N#Cc1ccc(/C=N/NC(N)=S)s1` [CITENAZONE] as the compound, how does the IC50 read?
Answer: > 20 µM

Question: What about the IC50 (read-out: pIC50 (converted)) of the same compound?
Answer: > 20 µM

Question: Which results are given for `CC(=O)OC1CCC2(C)C3CC(=O)C4(C)C(C(C)=O)=CCC4C3CC[C@H]2C1` (some centres undefined)?
Answer: IC50: > 20 µM; IC50 (read-out: pIC50 (converted)): > 20 µM

Question: What does the source list for `CC12CCC(C[N+](C)(CCC[N+](C)(C)C)C1)C2(C)C` (centres undefined)?
Answer: IC50: > 20 µM; IC50 (read-out: pIC50 (converted)): > 20 µM

Question: `OCC(O)Cc1ccc2c(c1)OCO2` (centres undefined) [SAFROLGLYCOL] was tested. Which IC50 did it give?
Answer: > 20 µM

Question: And the IC50 (read-out: pIC50 (converted))?
Answer: > 20 µM

Question: `CC(C)CC1C(=O)N2CCCC2C2(O)OC(NC(=O)C3CC4c5cccc6[nH]cc(c56)CC4N(C)C3)(C(C)C)C(=O)N12` (centres undefined) was tested. Which IC50 did it give?
Answer: > 20 µM

Question: What about the IC50 (read-out: pIC50 (converted)) of the same compound?
Answer: > 20 µM

Question: `C[C@@H]1COC(Nc2ccc3ncnc(Nc4ccc(OCc5nccs5)c(Cl)c4)c3c2)=N1` [VARLITINIB] was tested. Which IC50 did it give?
Answer: > 20 µM

Question: What about the IC50 (read-out: pIC50 (converted)) of the same compound?
Answer: > 20 µM

Question: For `CN1CCc2cc3c(cc2C1O)OCO3` (centres undefined) [HYDRASTININE], which IC50 is on record?
Answer: > 20 µM

Question: And the IC50 (read-out: pIC50 (converted))?
Answer: > 20 µM

Question: `c1ccc(C(Cc2noc(CCN3CCCCC3)n2)c2ccccc2)cc1` [PRENOXDIAZINE] was tested. Which IC50 did it give?
Answer: > 20 µM

Question: And the IC50 (read-out: pIC50 (converted))?
Answer: > 20 µM
